The values below come from patent publication US20210238139A1, “MODULATORS OF TRYPTOPHAN CATABOLISM” (E-Therapeutics PLC, priority 2018, published 2021).

The assay has as its system SK-OV-3 cells. The assay can be described thus: Effect of compounds on tryptophan catabolism in SK-OV-3 cell line (inhibition of kynurenine production, LC-MS/MS). The assay is classed as cell-based. To be noted: Homo sapiens, SK-OV-3, 24 h, SK-OV-3 cell line, 24 h incubation, kynurenine in supernatant by LC-MS/MS; read-out: IC50 Ranges (ic50 values for inhibition of Kynurenine production). Here is the method:
SK-OV-3 cells are seeded in 96-well plates in McCoy's 5A medium supplemented with 10% FBS and incubated overnight at 37° C., 5% CO2, 95% humidity. The […] growth medium is replaced with DMEM F-12 medium supplemented with 6 mg/mL L-tryptophan. Compounds are added to the wells and incubated for 24 h at 37° C., 5% CO2, 95% humidity. Compounds are tested at 8 consecutive 3-fold dilutions starting from 30 μM in duplicate. At the end of incubation, concentration of kynurenine in cell supernatants is […] determined by LC-MS/MS. In parallel, cell viability is assessed by measurement of ATP using CellTiter Glo assay (Promega), according to manufacturer's protocol. Inhibition of Kyn production is calculated using the following formula: […] IC50 ranges for compounds of the invention are presented in Table 2, whereby the IC50 ranges are as follows: • A: […]

The structures appear in SMILES notation. Where only a bound is given, the exact number is not on record here.

`O=C(Nc1ccc(Cl)cc1)N(Cc1ccc2ncoc2c1)C1CCC1` [Compound 237, 1-(1,3-benzoxazol-6-ylmethyl)-3-(4-chlorophenyl)-1-cyclobutyl-urea]: the IC50 – broadly, the concentration at which inhibition is half-maximal – lay within 100 to 500 nM.
As for `Cc1ccc(CN(C(=O)Nc2ccc(C#N)cc2)C23CC(C2)C3)o1` [Compound 285, 1-(1-bicyclo[1.1.1]pentanyl)-3-(4-cyanophenyl)-1-[(5-methyl-2-furyl)methyl]urea], the IC50 was in the range of 100 to 500 nM.
The same measure for `Cc1ccc(CN(C(=O)Nc2ccc(-c3cscn3)cc2)C2CCCC2)o1` [Compound 106, 1-cyclopentyl-1-[(5-methyl-2-furyl)methyl]-3-(4-thiazol-4-ylphenyl)urea]: 500 to 1000 nM; for `Cc1ccc(CN(C(=O)Nc2ccc(C#N)cn2)C2CCCC2)o1` [Compound 121, 3-(5-cyano-2-pyridyl)-1-cyclopentyl-1-[(5-methyl-2-furyl)methyl]urea]: 500 to 1000 nM.
With `O=C(Nc1cccs1)N(c1ccccc1)C1CCCC1` [Compound 58, 1-cyclopentyl-1-phenyl-3-(2-thienyl)urea] the figure was 1000 to 5000 nM; with `C#Cc1ccc(NC(=O)N(Cc2ccc(C)o2)C2CCN(C)CC2)cc1` [Compound 258, 3-(4-ethynylphenyl)-1-[(5-methyl-2-furyl)methyl]-1-(1-methyl-4-piperidyl)urea], > 5000 nM.
With `COc1ccc(CN(C(=O)Nc2ccc(F)cc2)C2CCCC2)cc1C` [Compound 48, 1-cyclopentyl-3-(4-fluorophenyl)-1-[(4-methoxy-3-methyl-phenyl)methyl]urea] the figure was 100 to 500 nM; with `Cc1ccc(CN(C(=O)Nc2ccccc2)c2ncco2)o1` [Compound 179, 1-[(5-methyl-2-furyl)methyl]-1-oxazol-2-yl-3-phenyl-urea], > 5000 nM.
With `Cc1ccc(CN(C(=O)Nc2ccc(C#N)cc2)c2c(C)noc2C)o1` [Compound 230, 3-(4-cyanophenyl)-1-(3,5-dimethylisoxazol-4-yl)-1-[(5-methyl-2-furyl)methyl]urea], the IC50 was 100 to 500 nM.
In the case of `N#Cc1cncc(CN(C(=O)Nc2ccc(Cl)cc2)C2CCCC2)c1` [Compound 115, 3-(4-chlorophenyl)-1-[(5-cyano-3-pyridyl)methyl]-1-cyclopentyl-urea], the IC50 lay within 100 to 500 nM.
As for `CC(C)(C)OC(=O)N1CCC(CN(C(=O)Nc2ccc(F)cc2)C2CCCC2)CC1` [Compound 119, tert-butyl 4-[[cyclopentyl-[(4-fluorophenyl)carbamoyl]amino]methyl]piperidine-1-carboxylate], the IC50 is 500 to 1000 nM.
As for `O=C(Nc1ccccc1)N(Cc1ccco1)C1CCCC1` [Compound 28, 1-cyclopentyl-1-(2-furylmethyl)-3-phenyl-urea], the IC50 was in the range of 500 to 1000 nM.
For `N#Cc1ccc(NC(=O)N(Cc2ccnc(C(F)(F)F)c2)C2CCC2)cc1` [Compound 152, 3-(4-cyanophenyl)-1-cyclobutyl-1-[[2-(trifluoromethyl)-4-pyridyl]methyl]urea], the IC50 fell in the range of 100 to 500 nM.
As for `Cc1ccc(NC(=O)N(Cc2cccs2)C2CCCC2)c(C)c1` [Compound 5, 1-cyclopentyl-3-(2,4-dimethylphenyl)-1-(2-thienylmethyl)urea], the IC50 is 1000 to 5000 nM.
With `N#Cc1ccc(NC(=O)N(Cc2cc3ccccc3o2)C2CCC2)cc1` [Compound 234, 1-(benzofuran-2-ylmethyl)-3-(4-cyanophenyl)-1-cyclobutyl-urea] the figure was < 100 nM; with `Cc1ccc(CN(C(=O)Nc2ccc(C#N)cc2)c2ncnn2C)o1` [Compound 266, 3-(4-cyanophenyl)-1-[(5-methyl-2-furyl)methyl]-1-(2-methyl-1,2,4-triazol-3-yl) urea], 1000 to 5000 nM.
The same measure for `C#Cc1ccc(NC(=O)N(Cc2ccnc(C(F)(F)F)c2)C2CCC2)cc1` [Compound 153, 1-cyclobutyl-3-(4-ethynylphenyl)-1-[[2-(trifluoromethyl)-4-pyridyl]methyl]urea]: < 100 nM.
The same measure for `O=C(Nc1ccc(Cl)cc1)N(Cc1ccc2nsnc2c1)C1CCC1` [Compound 240, 1-(2,1,3-benzothiadiazol-5-ylmethyl)-3-(4-chlorophenyl)-1-cyclobutyl-urea]: < 100 nM.
